The record followed here is patent publication US10780074B2, “Compounds and uses thereof” (Sunovion Pharmaceuticals Inc., priority 2017, dated 2020).

Counter-ions that a name gives are not always drawn. Bounds are passed on as bounds.

For the assay, the system named is behaviors of compound-treated mice. The experiment in a line: Neuropharmacological Assay (SmartCube). The format is in vivo. The settings on record: for minimal effective dose: Mus musculus, ip, 0.25 h, dose having 50% or more total activity in SmartCube, i.p., read-out: MED (minimal effective dose); for AD: ADHD (probability that activity matches class) / AG: analgesic (probability that activity matches class) / AX: anxiolytic (probability that activity matches class) / CE: cognitive enhancer (probability that activity matches class) / DP: anti-depressant (probability that activity matches class) / MS: mood stabilizer (probability that activity matches class) / PS: anti-psychotic (probability that activity matches class) / SD: sedative hypnotic (probability that activity matches class) / UN: uncharacterized CNS activity (probability that activity matches class): i.p. 15 min before behavioral test, most efficacious dose(s) of 3 doses. The method, boiled down:
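Mice dosed i.p. 15 min before testing, with compound in N-methyl-2-pyrrolidone/PEG/propylene glycol, were video-recorded and algorithmically compared with reference-drug behavioral signatures. This gave class-match probabilities (antidepressant, anxiolytic, etc.) at the most efficacious of 3 doses. MED was defined as the dose with ≥50% total activity, usually tested across 0.3–30 mpk.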

By minimal effective dose is commonly meant the lowest level tested that produced the effect sought. As to `NC[C@H]1OCCc2c(-c3cccnc3)cccc21` [Compound 16, (S)-(5-(Pyridin-3-yl)isochroman-1-yl)methanamine hydrochloride], the minimal effective dose was no more than 3 mg/kg, the “AD: ADHD (probability that activity matches class)” value (“AD: ADHD” for short) is recorded as “+ (LOQ ≤ + <5%)”, the “AG: analgesic (probability that activity matches class)” value (“AG: analgesic” for short) is on record as “+ (LOQ ≤ + <5%)” and the “AX: anxiolytic (probability that activity matches class)” value (from here on “AX: anxiolytic”) is recorded as “++ (5% ≤ ++ <25%)”. The “CE: cognitive enhancer (probability that activity matches class)” value (shortened to “CE: cognitive enhancer”) is “++ (5% ≤ ++ <25%)”, the “DP: anti-depressant (probability that activity matches class)” value (“DP: anti-depressant” below) is “++++ (50% ≤ ++++)”, the “MS: mood stabilizer (probability that activity matches class)” value (shortened to “MS: mood stabilizer”) is given as “+ (LOQ ≤ + <5%)” and the “PS: anti-psychotic (probability that activity matches class)” value (“PS: anti-psychotic” for short) is “+ (LOQ ≤ + <5%)”. The “SD: sedative hypnotic (probability that activity matches class)” value (shortened to “SD: sedative hypnotic”) was “+ (LOQ ≤ + <5%)” and the “UN: uncharacterized CNS activity (probability that activity matches class)” value (shortened to “UN: uncharacterized CNS activity”) is on record as “+ (LOQ ≤ + <5%)”.
Regarding `CNC[C@@H]1OCCc2c(-c3ccncc3)cccc21` [Compound 17, (R)—N-Methyl(5-(pyridin-4-yl)isochroman-1-yl)methanamine dihydrochloride salt], the minimal effective dose was no more than 3 mg/kg, the “AD: ADHD” value is “++ (5% ≤ ++ <25%)”, the “AG: analgesic” value is recorded as “+ (LOQ ≤ + <5%)” and the “AX: anxiolytic” value is recorded as “+ (LOQ ≤ + <5%)”. In addition, the “CE: cognitive enhancer” value is “+ (LOQ ≤ + <5%)”, the “DP: anti-depressant” value was “++++ (50% ≤ ++++)”, the “MS: mood stabilizer” value is recorded as “+ (LOQ ≤ + <5%)” and the “PS: anti-psychotic” value was “+ (LOQ ≤ + <5%)”. For the same compound, the “SD: sedative hypnotic” value is reported as “++ (5% ≤ ++ <25%)” and the “UN: uncharacterized CNS activity” value is given as “++ (5% ≤ ++ <25%)”.
As to `CNC[C@H]1OCCc2c(-c3ccncc3)cccc21` [Compound 18, (S)—N-Methyl(5-(pyridin-4-yl)isochroman-1-yl)methanamine dihydrochloride salt], the minimal effective dose lay within 10 to 30 mg/kg, the “AD: ADHD” value is given as “+ (LOQ ≤ + <5%)”, the “AG: analgesic” value is “+ (LOQ ≤ + <5%)” and the “AX: anxiolytic” value is “+ (LOQ ≤ + <5%)”. For the same compound, the “CE: cognitive enhancer” value is “+ (LOQ ≤ + <5%)”, the “DP: anti-depressant” value is “++++ (50% ≤ ++++)”, the “MS: mood stabilizer” value is listed as “+ (LOQ ≤ + <5%)” and the “PS: anti-psychotic” value is “+ (LOQ ≤ + <5%)”. Besides, the “SD: sedative hypnotic” value is listed as “+ (LOQ ≤ + <5%)” and the “UN: uncharacterized CNS activity” value is recorded as “+ (LOQ ≤ + <5%)”.
As for `NC[C@@H]1OCCc2c(-c3ccncc3)cccc21` [Compound 19, (R)-(5-(Pyridin-4-yl)isochroman-1-yl)methanamine hydrochloride salt], the minimal effective dose was greater than 30 mg/kg, the “AD: ADHD” value is listed as “+ (LOQ ≤ + <5%)”, the “AG: analgesic” value is recorded as “++ (5% ≤ ++ <25%)” and the “AX: anxiolytic” value is recorded as “++ (5% ≤ ++ <25%)”. Besides, the “CE: cognitive enhancer” value is recorded as “++ (5% ≤ ++ <25%)”, the “DP: anti-depressant” value is listed as “++ (5% ≤ ++ <25%)”, the “MS: mood stabilizer” value is reported as “+ (LOQ ≤ + <5%)” and the “PS: anti-psychotic” value is “+ (LOQ ≤ + <5%)”. In addition, the “SD: sedative hypnotic” value was “+ (LOQ ≤ + <5%)” and the “UN: uncharacterized CNS activity” value is listed as “+ (LOQ ≤ + <5%)”.
Consider `NC[C@H]1OCCc2c(-c3ccncc3)cccc21` [Compound 20, (S)-(5-(Pyridin-4-yl)isochroman-1-yl)methanamine hydrochloride salt], for which the minimal effective dose is no more than 3 mg/kg, the “AD: ADHD” value is “++ (5% ≤ ++ <25%)”, the “AG: analgesic” value is “++ (5% ≤ ++ <25%)” and the “AX: anxiolytic” value is “++ (5% ≤ ++ <25%)”. Also, the “CE: cognitive enhancer” value is given as “+ (LOQ ≤ + <5%)”, the “DP: anti-depressant” value is “++++ (50% ≤ ++++)”, the “MS: mood stabilizer” value is “+ (LOQ ≤ + <5%)” and the “PS: anti-psychotic” value was “+ (LOQ ≤ + <5%)”. Moreover, the “SD: sedative hypnotic” value was “+ (LOQ ≤ + <5%)” and the “UN: uncharacterized CNS activity” value was “++++ (50% ≤ ++++)”.
Take `CNC[C@@H]1OCCc2cc(-c3ncccn3)ccc21` [Compound 21, (R)—N-Methyl-1-(6-(pyrimidin-2-yl)isochroman-1-yl)methanamine hydrochloride salt]: the minimal effective dose lay within 10 to 30 mg/kg, the “AD: ADHD” value is listed as “+ (LOQ ≤ + <5%)”, the “AG: analgesic” value is “++ (5% ≤ ++ <25%)” and the “AX: anxiolytic” value was “++ (5% ≤ ++ <25%)”. In addition, the “CE: cognitive enhancer” value was “++ (5% ≤ ++ <25%)”, the “DP: anti-depressant” value is on record as “++ (5% ≤ ++ <25%)”, the “MS: mood stabilizer” value is reported as “+ (LOQ ≤ + <5%)” and the “PS: anti-psychotic” value was “+ (LOQ ≤ + <5%)”. Moreover, the “SD: sedative hypnotic” value is “+ (LOQ ≤ + <5%)” and the “UN: uncharacterized CNS activity” value is on record as “+ (LOQ ≤ + <5%)”.
As to `CNC[C@H]1OCCc2cc(-c3ncccn3)ccc21` [Compound 22, (S)—N-Methyl-1-(6-(pyrimidin-2-yl)isochroman-1-yl)methanamine hydrochloride salt], the minimal effective dose lay in the range of 10 to 30 mg/kg, the “AD: ADHD” value is listed as “+ (LOQ ≤ + <5%)”, the “AG: analgesic” value was “++ (5% ≤ ++ <25%)” and the “AX: anxiolytic” value is given as “++ (5% ≤ ++ <25%)”. Further, the “CE: cognitive enhancer” value is recorded as “++ (5% ≤ ++ <25%)”, the “DP: anti-depressant” value is recorded as “++ (5% ≤ ++ <25%)”, the “MS: mood stabilizer” value is given as “+ (LOQ ≤ + <5%)” and the “PS: anti-psychotic” value was “+ (LOQ ≤ + <5%)”. The “SD: sedative hypnotic” value is on record as “+ (LOQ ≤ + <5%)” and the “UN: uncharacterized CNS activity” value is reported as “+++ (25% ≤ +++ <50%)”.
For the compound `CNC[C@H]1OCCc2c(-c3ncccn3)cccc21` [Compound 23, (S)—N-Methyl-1-(5-(pyrimidin-2-yl)isochroman-1-yl)methanamine hydrochloride salt], the minimal effective dose fell in the range of 10 to 30 mg/kg, the “AD: ADHD” value is “++ (5% ≤ ++ <25%)”, the “AG: analgesic” value is recorded as “++ (5% ≤ ++ <25%)” and the “AX: anxiolytic” value is recorded as “++ (5% ≤ ++ <25%)”. For the same compound, the “CE: cognitive enhancer” value is listed as “+ (LOQ ≤ + <5%)”, the “DP: anti-depressant” value is “++++ (50% ≤ ++++)”, the “MS: mood stabilizer” value is recorded as “+ (LOQ ≤ + <5%)” and the “PS: anti-psychotic” value is given as “+ (LOQ ≤ + <5%)”. Further, the “SD: sedative hypnotic” value is reported as “+ (LOQ ≤ + <5%)” and the “UN: uncharacterized CNS activity” value is listed as “+ (LOQ ≤ + <5%)”.
Regarding `CNC[C@@H]1OCCc2c(-c3ncccn3)cccc21` [Compound 24, (R)—N-Methyl-1-(5-(pyrimidin-2-yl)isochroman-1-yl)methanamine hydrochloride], the minimal effective dose was greater than 30 mg/kg, the “AD: ADHD” value is recorded as “+ (LOQ ≤ + <5%)”, the “AG: analgesic” value was “+ (LOQ ≤ + <5%)” and the “AX: anxiolytic” value is on record as “++ (5% ≤ ++ <25%)”. Besides, the “CE: cognitive enhancer” value is “+ (LOQ ≤ + <5%)”, the “DP: anti-depressant” value is reported as “+ (LOQ ≤ + <5%)”, the “MS: mood stabilizer” value was “+ (LOQ ≤ + <5%)” and the “PS: anti-psychotic” value was “+ (LOQ ≤ + <5%)”. The “SD: sedative hypnotic” value was “+ (LOQ ≤ + <5%)” and the “UN: uncharacterized CNS activity” value was “++ (5% ≤ ++ <25%)”.
Regarding `CNC[C@@H]1OCc2c(-c3cccnc3)cccc21` [Compound 33, (R)—N-Methyl-1-(4-(pyridin-3-yl)-1,3-dihydroisobenzofuran-1-yl)methanamine hydrochloride salt], the minimal effective dose fell in the range of 10 to 30 mg/kg, the “AD: ADHD” value is recorded as “+ (LOQ ≤ + <5%)”, the “AG: analgesic” value is listed as “+ (LOQ ≤ + <5%)” and the “AX: anxiolytic” value is recorded as “++ (5% ≤ ++ <25%)”. For the same compound, the “CE: cognitive enhancer” value was “+ (LOQ ≤ + <5%)”, the “DP: anti-depressant” value is given as “++++ (50% ≤ ++++)”, the “MS: mood stabilizer” value is on record as “+ (LOQ ≤ + <5%)” and the “PS: anti-psychotic” value was “+ (LOQ ≤ + <5%)”. In addition, the “SD: sedative hypnotic” value is given as “+ (LOQ ≤ + <5%)” and the “UN: uncharacterized CNS activity” value is “+ (LOQ ≤ + <5%)”.
Turning to `CNC[C@H]1OCc2c(-c3cccnc3)cccc21` [Compound 34, (S)—N-Methyl-1-(4-(pyridin-3-yl)-1,3-dihydroisobenzofuran-1-yl)methanamine hydrochloride salt], the minimal effective dose was no more than 3 mg/kg, the “AD: ADHD” value is recorded as “+ (LOQ ≤ + <5%)”, the “AG: analgesic” value is “+ (LOQ ≤ + <5%)” and the “AX: anxiolytic” value is on record as “++ (5% ≤ ++ <25%)”. The “CE: cognitive enhancer” value was “+ (LOQ ≤ + <5%)”, the “DP: anti-depressant” value is on record as “++++ (50% ≤ ++++)”, the “MS: mood stabilizer” value was “++ (5% ≤ ++ <25%)” and the “PS: anti-psychotic” value was “+ (LOQ ≤ + <5%)”. Also, the “SD: sedative hypnotic” value is “+ (LOQ ≤ + <5%)” and the “UN: uncharacterized CNS activity” value was “+ (LOQ ≤ + <5%)”.
